Measured values published in patent publication US12448373B2, “Azetidinyl-acetamides as CXCR7 inhibitors” (CHEMOCENTRYX, INC., priority 2021, dated 2025).

molecular target: T1, CXCR7 (Homo sapiens, UniProt P25106); test: CXCR7 β-arrestin recruitment assay in CHO-CXCR7 cells (ProLink/EA β-galactosidase complementation), induced by human SDF-1a; format: cell-based; settings: assay buffer, SDF-1a at EC50 concentration
T1 construct: expressed in transfected cells; host or cells: CHO cells (CHO-CXCR7), transgenes maintained with Hygromycin B and G418
T1 sequence (P25106 whole entry): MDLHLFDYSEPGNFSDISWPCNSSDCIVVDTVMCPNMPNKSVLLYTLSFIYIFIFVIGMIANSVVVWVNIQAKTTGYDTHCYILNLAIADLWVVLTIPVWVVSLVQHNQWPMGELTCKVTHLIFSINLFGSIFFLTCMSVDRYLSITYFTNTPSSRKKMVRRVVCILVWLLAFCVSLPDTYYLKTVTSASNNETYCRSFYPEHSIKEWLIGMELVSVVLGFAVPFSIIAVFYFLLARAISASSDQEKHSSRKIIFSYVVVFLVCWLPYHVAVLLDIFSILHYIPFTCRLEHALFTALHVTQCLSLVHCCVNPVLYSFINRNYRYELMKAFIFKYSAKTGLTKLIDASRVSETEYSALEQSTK
Method in brief: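 SDF-1α-induced β-arrestin recruitment was measured by enzyme-fragment complementation (ProLink-CXCR7 with β-arrestin-EA) in stable CHO cells. Agonist was dosed at its EC50, determined the same day, alongside serially diluted compound for 1.5 h at 37 °C. Fluorogenic galactoside substrate (0.4 mM, 30 min) was read at 360/465 nm, with IC50 from 3-parameter nonlinear regression.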

| IC50 [nM] | SMILES |
| --- | --- |
| 100 to 1000 | Cc1cc(C)nc(C(C)(C)NC(=O)CC2(NC(=O)c3cc(-c4ccc(F)cc4F)on3)CN(C3CCOC3(C)C)C2)n1 (stereo not shown) [Example 1.353] |
| 5 to 100 | Cc1cc(C(C)(C)NC(=O)CC2(NC(=O)c3cc(-c4ccc(F)cc4F)on3)CN(CC(C)C)C2)ccn1 [Example 1.122] |
| 5 to 100 | CC(C)(NC(=O)CC1(NC(=O)c2cc(-c3ccc(F)cc3F)on2)CN([C@H]2CC[C@@](C)(O)CC2)C1)c1cnccn1 [Example 1.157] |
| 5 to 100 | Cc1cc(C)nc(C(C)(C)NC(=O)CC2(NC(=O)c3nnc(-c4ccc(F)cc4F)s3)CN([C@H]3CC[C@@](C)(O)CC3)C2)n1 [Example 1.060] |
| < 5 | COc1cc(Cl)cc(C(C)(C)NC(=O)CC2(NC(=O)c3cc(-c4ccc(F)cc4F)on3)CN(CC(C)(C)O)C2)c1 [Example 1.154] |
| 5 to 100 | CC(C)(NC(=O)CC1(NC(=O)c2ncc(-c3ccc(F)cc3F)s2)CN([C@H]2CC[C@@](C)(O)CC2)C1)c1cccc(Cl)c1 [Example 1.045] |
| < 5 | CC(C)(NC(=O)CC1(NC(=O)c2cc(-c3ccc(F)cc3F)on2)CN([C@H]2CC[C@@](C)(O)CC2)C1)c1cc(Cl)ccc1F [Example 1.132] |
| < 5 | CC(C)(NC(=O)CC1(NC(=O)c2cc(-c3ccc(F)cc3F)on2)CN([C@H]2CC[C@](C)(O)CC2)C1)c1ccncc1 [Example 1.182] |
| < 5 | CC(C)(NC(=O)CC1(NC(=O)c2cc(-c3ccc(F)cc3F)on2)CN(C2CCCCC2)C1)c1ccnc2[nH]ccc12 [Example 1.082] |
| 5 to 100 | COc1cc(OC)nc(C(C)(C)NC(=O)CC2(NC(=O)c3nnc(-c4ccc(F)cc4F)s3)CN([C@H]3CC[C@](C)(O)CC3)C2)c1 [Example 1.342] |
| < 5 | Cc1ccc(F)c(C(C)(C)NC(=O)CC2(NC(=O)c3cc(-c4ccc(F)cc4F)on3)CN([C@H]3CC[C@@](C)(O)CC3)C2)c1 [Example 1.184] |
| 5 to 100 | Cc1cc(C)nc(C(C)(C)NC(=O)CC2(NC(=O)c3cn(-c4ccc(F)cc4F)nn3)CN(C3CCCCC3)C2)n1 [Example 1.071] |
| 5 to 100 | CC(C)(NC(=O)CC1(NC(=O)c2cc(-c3ccc(F)cc3F)on2)CN([C@H]2CC[C@@](C)(O)CC2)C1)c1ccc(F)c(F)c1 [Example 1.256] |
| 5 to 100 | CC(C)(NC(=O)CC1(NC(=O)c2cc(-c3ccc(F)cc3F)on2)CN(C2CC2)C1)c1ccccn1 [Example 1.313] |
| 1000 to 20000 | CC(C)(NC(=O)CC1(NC(=O)c2cn(-c3ccc(F)cc3F)cn2)CN(C2CCCCC2)C1)c1cccc(Cl)c1 [Example 1.023] |
| 5 to 100 | CC(C)(NC(=O)CC1(NC(=O)c2cc(-c3ccc(F)cc3F)on2)CN([C@H]2CC[C@@](C)(O)CC2)C1)c1ccnc(C#N)c1 [Example 1.161] |

| IC50 [nM] | SMILES |
| --- | --- |
| 100 to 1000 | CC(C)(NC(=O)CC1(NC(=O)c2cc(-c3ccc(F)cc3F)on2)CN(CCC(F)(F)F)C1)c1ccccn1 [Example 1.019] |
| 1000 to 20000 | C[C@]1(O)CC[C@H](N2CC(CC(=O)NCc3cccc(Cl)c3)(NC(=O)c3cc(-c4ccc(F)cc4F)on3)C2)CC1 [Example 1.110] |
| 100 to 1000 | COc1cccc(C(C)(C)NC(=O)CC2(NC(=O)c3cc(-c4ccc(F)cc4F)on3)CN(CC3CC3)C2)c1 [Example 1.117] |
| 5 to 100 | CC(C)(NC(=O)CC1(NC(=O)c2cc(-c3ccc(F)cc3F)on2)CN([C@H]2CC[C@](C)(O)CC2)C1)c1ccnc2[nH]ccc12 [Example 1.101] |
| < 5 | Cc1cc(C(C)(C)NC(=O)CC2(NC(=O)c3cc(-c4ccc(F)cc4F)on3)CN([C@H]3CC[C@@](C)(O)CC3)C2)ccn1 [Example 1.210] |
| 1000 to 20000 | CC(C)(NC(=O)CC1(NC(=O)c2cc(-c3ccc(F)cc3F)n[nH]2)CN([C@H]2CC[C@@](C)(O)CC2)C1)c1cccc(Cl)c1 [Example 1.053] |
| 5 to 100 | COc1cc(C)cc(C(C)(C)NC(=O)CC2(NC(=O)c3cc(-c4ccc(F)cc4F)on3)CN([C@H]3CC[C@@](C)(O)CC3)C2)c1 [Example 1.118] |
| 5 to 100 | CC(C)(NC(=O)CC1(NC(=O)c2cc(-c3ccc(F)cc3F)on2)CN(C2CCOCC2)C1)c1ccccn1 [Example 1.317] |
| 5 to 100 | CC(C)(NC(=O)CC1(NC(=O)c2cc(-c3ccc(F)cc3F)on2)CN([C@H]2CC[C@](C)(O)CC2)C1)c1ccc(F)cc1Cl [Example 1.253] |
| < 5 | CC(C)(NC(=O)CC1(NC(=O)c2cc(-c3ccc(F)cc3F)on2)CN([C@H]2CC[C@](C)(O)CC2)C1)c1ccccc1F [Example 1.228] |
| 100 to 1000 | Cc1cc(C(C)C)cc(C(C)(C)NC(=O)CC2(NC(=O)c3cc(-c4ccc(F)cc4F)on3)CN([C@H]3CC[C@](C)(O)CC3)C2)n1 [Example 1.344] |
| < 5 | CC(C)(NC(=O)CC1(NC(=O)c2cc(-c3ccc(F)cc3F)on2)CN([C@H]2CC[C@@](C)(O)CC2)C1)c1ccccn1 [Example 1.192] |
| 5 to 100 | CC1(CN2CC(CC(=O)NC(C)(C)c3ccccn3)(NC(=O)c3cc(-c4ccc(F)cc4F)on3)C2)COC1 [Example 1.224] |
| 5 to 100 | O=C(CC1(NC(=O)c2cc(-c3ccc(F)cc3F)on2)CN(C2CCCCC2)C1)NC1(c2ccccc2)CC1 [Example 1.325] |
| < 5 | CC(C)(NC(=O)CC1(NC(=O)c2cc(-c3ccc(F)cc3F)on2)CN([C@H]2CC[C@](C)(O)CC2)C1)c1cc(Cl)ccc1F [Example 1.133] |
